Patent US20260008758A1, “LINEAR DIPEPTIDYL PEPTIDASE 1 INHIBITORS AND USES THEREOF” (Insmed Incorporated, priority 2024, published 2026)

Legend:
DPP1 in HL-60 cells [1] = biological target: T1, DPP1 in HL-60 cells (Homo sapiens (Human), UniProt P53634); experiment: DPP1 Cell IC50 assay; format: cell-based; conditions: H-Gly-Phe-AFC substrate, 60 min pre-incubation
Experimental: Media was changed every three to four days and cells were not allowed to exceed 1×10^6 cells per mL. Prior to assay, cells were collected by centrifugation at 500 rcf for 3 minutes, resuspended in PBS and counted. Cells were diluted in PBS to a concentration of 5×10^5 live cells per mL and transferred to black 96-well plates for assay, 60 μL per well. Test articles were diluted in PBS plus 0.5% DMSO, and 20 μL was added to each assay well. Compound was allowed to pre-incubate with cells with gentle shaking at 100 rpm for 60 minutes at 37° C. in a cell culture incubator maintained at 5% CO2, after which 20 μL of 500 μM H-Gly-Phe-AFC substrate (MP Biomedicals; Solon, OH) was added to each well. Plates were returned to the incubator with shaking at 100 rpm for 30 minutes, after which fluorescence was measured at Excitation/Emission 400/505 nm. % Inhibition was calculated from RFU values compared to control cell wells that received only PBS plus 0.5% DMSO. IC50 values for each compound were calculated via the XLFit (IDBS Version 5.3.1.3) Add-On to Microsoft Excel using the four parameter fit equation y=(A+((B-A)/(1+((C/x)^D)))), which appears as equation number 205 (4 Parameter Logistic Model or Sigmoidal Dose-Response Model) in XLFit.

human DPP1 enzyme [2] = biological target: T2, human DPP1 enzyme (Homo sapiens (Human), UniProt P53634); experiment: Human DPP1 enzyme IC50 assay; format: biochemical; conditions: recombinant human DPP1, H-Gly-Arg-AMC substrate 400 μM
T2 sequence (P53634 25-134): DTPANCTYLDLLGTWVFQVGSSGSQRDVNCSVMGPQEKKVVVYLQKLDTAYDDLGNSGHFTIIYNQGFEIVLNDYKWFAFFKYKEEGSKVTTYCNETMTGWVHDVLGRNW
T2 sequence (P53634 231-394): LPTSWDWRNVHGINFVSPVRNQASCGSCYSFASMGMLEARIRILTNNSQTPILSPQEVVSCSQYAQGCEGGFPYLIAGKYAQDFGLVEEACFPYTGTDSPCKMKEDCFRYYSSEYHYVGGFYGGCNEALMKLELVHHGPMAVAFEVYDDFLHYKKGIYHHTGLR
T2 sequence (P53634 395-463): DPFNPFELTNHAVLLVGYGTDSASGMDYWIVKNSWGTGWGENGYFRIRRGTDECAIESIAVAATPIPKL
Experimental: Test articles were applied to activated human DPP1 enzyme in Assay Buffer (25 mM MES pH 6.0, 50 mM NaCl, 5 mM DTT) in a total reaction volume of 125 μL. 25 μL of compound in Assay Buffer plus 5% DMSO was first added to 50 μL of activated human DPP1 enzyme at a concentration of 1 ng/μL and allowed to pre-incubate for 10 minutes at 37° C. after which 50 μL of 1000 μM H-Gly-Arg-AMC substrate (Bachem; St. Torrance, CA) was added, giving final substrate concentration of 400 μM and a final DMSO concentration of 1%. Substrate cleavage was measured for 90 minutes at 37° C., with fluorescence at Excitation/Emission 350/450 nm measured every 5 minutes. DPP1 concentration was interpolated based on its activity relative to a standard curve of activated human recombinant DPP1 enzyme. IC50 values for each compound were calculated via the XLFit (IDBS Version 5.3.1.3) Add-On to Microsoft Excel using the four parameter fit equation y={A+[(B-A)]/[1+((C/x)^D)]}, which appears as equation number 205 (4 Parameter Logistic Model or Sigmoidal Dose-Response Model) in XLFit. Default constraints were used for each Parameter.

DPP1 in HL-60 cells [3] = biological target: T1, DPP1 in HL-60 cells; experiment: DPP1 cell single-point percent inhibition testing (HL-60 cells, H-Gly-Phe-AFC substrate); format: cell-based; conditions: read-out: DPP1 cell % inhibition @ 5 nM, 5 nM compound, 100 μM H-Gly-Phe-AFC, 60 min pre-incubation at 37° C.
human DPP1 enzyme [4] = biological target: T2, human DPP1 enzyme; experiment: Human DPP1 enzyme single-point percent inhibition testing (HL-60 lysate, H-Gly-Arg-AMC substrate); format: biochemical; conditions: read-out: human DPP1 enzyme % inhibition @ 10 nM, 10 nM compound, 400 μM H-Gly-Arg-AMC, 10 min pre-incubation at 37° C.

T1 sequence (P53634 25-134): as the sequence (P53634 25-134) above
T1 sequence (P53634 231-394): as the sequence (P53634 231-394) above
T1 sequence (P53634 395-463): as the sequence (P53634 395-463) above

`Cn1c(=O)oc2ccc(-c3ccc(C[C@@H](C#N)NC(=O)[C@@H](N)C4CCCO4)cc3)cc21` (stereo in doubt) [Compound 210, (2S)-2-amino-N-[(1S)-1-cyano-2-[4-(3-methyl-2-oxo-1,3-benzoxazol-5-yl)phenyl]ethyl]-2-[(2S)-oxolan-2-yl]acetamide] showed an IC50 (DPP1 in HL-60 cells [1]) of at least 2.5 nM and an IC50 (human DPP1 enzyme [2]) of 5 to 15 nM.
`Cn1c(=O)oc2ccc(-c3ccc(C[C@@H](C#N)NC(=O)[C@@H](N)C4CCCO4)cc3)cc21` (stereo in doubt) [Compound 212, (2S)-2-amino-N-[(1S)-1-cyano-2-[4-(3-methyl-2-oxo-1,3-benzoxazol-5-yl)phenyl]ethyl]-2-[(2R)-oxolan-2-yl]acetamide] gave an IC50 (DPP1 in HL-60 cells [1]) of 1 to 2.5 nM and an IC50 (human DPP1 enzyme [2]) of at most 5 nM.
Compound `Cn1c(=O)oc2ccc(-c3ccc(CC(C#N)NC(=O)C4(N)CCCC45CC5)c(F)c3)cc21` (stereo in doubt) [Compound 273A, (4S)-4-amino-N-[(1S)-1-cyano-2-[2-fluoro-4-(3-methyl-2-oxo-1,3-benzoxazol-5-yl)phenyl]ethyl]spiro[2.4]heptane-4-carboxamide] has an IC50 (DPP1 in HL-60 cells [1]) of at least 2.5 nM and an IC50 (human DPP1 enzyme [2]) of at least 15 nM.
With `C[C@@H](N)[C@@H](O)C(=O)N[C@H](C#N)Cc1ccc(-c2ccc3oc(=O)n(C)c3c2)cc1` [Compound 102B] the IC50 (DPP1 in HL-60 cells [1]) was at least 2.5 nM and the IC50 (human DPP1 enzyme [2]) was at least 15 nM.
`CO[C@@H](CN)C(=O)N[C@H](C#N)Cc1ccc(-c2ccc3oc(=O)n(C)c3c2)cc1` [Compound 103, (2S)-3-amino-N-[(1S)-1-cyano-2-[4-(3-methyl-2-oxo-1,3-benzoxazol-5-yl)phenyl]ethyl]-2-methoxypropanamide] gave an IC50 (DPP1 in HL-60 cells [1]) of at least 2.5 nM and an IC50 (human DPP1 enzyme [2]) of at least 15 nM.
For `CO[C@@H](CN(C)C)C(=O)N[C@H](C#N)Cc1ccc(-c2ccc3oc(=O)n(C)c3c2)cc1` [Compound 105, (2S)—N-[(1S)-1-cyano-2-[4-(3-methyl-2-oxo-1,3-benzoxazol-5-yl)phenyl]ethyl]-3-(dimethylamino)-2-methoxypropanamide], the IC50 (DPP1 in HL-60 cells [1]) was 1 to 2.5 nM and the IC50 (human DPP1 enzyme [2]) was at least 15 nM.
Work on `CNC[C@H](OC)C(=O)N[C@H](C#N)Cc1ccc(-c2ccc3oc(=O)n(C)c3c2)cc1` [Compound 109, (S)—N—((S)-1-cyano-2-(4-(3-methyl-2-oxo-2,3-dihydrobenzo[d]oxazol-5-yl)phenyl)ethyl)-2-methoxy-3-(methylamino)propanamide] yielded an IC50 (DPP1 in HL-60 cells [1]) of at least 2.5 nM and an IC50 (human DPP1 enzyme [2]) of at least 15 nM.
Work on `Cn1c(=O)oc2ccc(-c3ccc(C[C@@H](C#N)NC(=O)[C@@H](O)CN)cc3)cc21` [Compound 110, (2S)-3-amino-N-[(1S)-1-cyano-2-[4-(3-methyl-2-oxo-1,3-benzoxazol-5-yl)phenyl]ethyl]-2-hydroxypropanamide] yielded an IC50 (DPP1 in HL-60 cells [1]) of at least 2.5 nM and an IC50 (human DPP1 enzyme [2]) of at least 15 nM.
In the case of `CNC[C@H](O)C(=O)N[C@H](C#N)Cc1ccc(-c2ccc3oc(=O)n(C)c3c2)cc1` [Compound 111, (2S)—N-[(1S)-1-cyano-2-[4-(3-methyl-2-oxo-1,3-benzoxazol-5-yl)phenyl]ethyl]-2-hydroxy-3-(methylamino)propanamide], the IC50 (DPP1 in HL-60 cells [1]) is reported as at least 2.5 nM and the IC50 (human DPP1 enzyme [2]) is reported as at least 15 nM.
`CN(C)C[C@H](O)C(=O)N[C@H](C#N)Cc1ccc(-c2ccc3nnn(C)c3c2)cc1F` [Compound 141, (2S)—N-[(1S)-1-cyano-2-[2-fluoro-4-(3-methyl-1,2,3-benzotriazol-5-yl)phenyl]ethyl]-3-(dimethylamino)-2-hydroxypropanamide] gave an IC50 (DPP1 in HL-60 cells [1]) of 1 to 2.5 nM and an IC50 (human DPP1 enzyme [2]) of 5 to 15 nM.
`CN(C)C[C@H](O)C(=O)N[C@H](C#N)Cc1ccc(-c2ccc3oc(=O)n(CCN4CCOCC4)c3c2)cc1F` [Compound 142, (2S)—N-[(1S)-1-cyano-2-(2-fluoro-4-{3-[2-(morpholin-4-yl)ethyl]-2-oxo-1,3-benzoxazol-5-yl}phenyl)ethyl]-3-(dimethylamino)-2-hydroxypropanamide] showed an IC50 (DPP1 in HL-60 cells [1]) of at least 2.5 nM and an IC50 (human DPP1 enzyme [2]) of 5 to 15 nM.
`CN(C)C[C@H](O)C(=O)N[C@H](C#N)Cc1ccc(-c2ccc3c(c2)C2(CCN(C4COC4)CC2)OC3)cc1` [Compound 144, (2S)—N-[(1S)-1-cyano-2-{4-[1′-(oxetan-3-yl)-3H-spiro[2-benzofuran-1,4′-piperidin]-6-yl]phenyl}ethyl]-3-(dimethylamino)-2-hydroxypropanamide] was tested, and the IC50 (DPP1 in HL-60 cells [1]) was at least 2.5 nM and the IC50 (human DPP1 enzyme [2]) was at least 15 nM.
Compound `CN(C)C[C@H](O)C(=O)N[C@H](C#N)Cc1ccc(-c2ccc3c(c2)C2(CCCN(C)C2)C(=O)N3C)cc1` (stereo partly drawn) [Compound 145, (2S)—N-[(1S)-1-cyano-2-(4-{1,1′-dimethyl-2-oxospiro[indole-3,3′-piperidin]-5-yl}phenyl)ethyl]-3-(dimethylamino)-2-hydroxypropanamide] has an IC50 (DPP1 in HL-60 cells [1]) of 1 to 2.5 nM and an IC50 (human DPP1 enzyme [2]) of at least 15 nM.
Compound `CCCCOCCn1c(=O)oc2ccc(-c3ccc(C[C@@H](C#N)NC(=O)[C@@H](O)CN(C)C)c(F)c3)cc21` [Compound 146, (2S)—N-[(1S)-2-{4-[3-(2-butoxyethyl)-2-oxo-1,3-benzoxazol-5-yl]-2-fluorophenyl}-1-cyanoethyl]-3-(dimethylamino)-2-hydroxypropanamide] has an IC50 (DPP1 in HL-60 cells [1]) of at least 2.5 nM and an IC50 (human DPP1 enzyme [2]) of 5 to 15 nM.
For `Cn1c(=O)oc2ccc(-c3ccc(C[C@@H](C#N)NC(=O)[C@H](N)CCO)cc3)cc21` [Compound 169, (2R)-2-amino-N-[(1S)-1-cyano-2-[4-(3-methyl-2-oxo-1,3-benzoxazol-5-yl)phenyl]ethyl]-4-hydroxybutanamide], the IC50 (DPP1 in HL-60 cells [1]) was at least 2.5 nM and the IC50 (human DPP1 enzyme [2]) was at least 15 nM.
Work on `C[C@@H](O)[C@](C)(N)C(=O)N[C@H](C#N)Cc1ccc(-c2ccc3oc(=O)n(C)c3c2)cc1` [Compound 171A, (2S,3R)-2-amino-N-[(1S)-1-cyano-2-[4-(3-methyl-2-oxo-1,3-benzoxazol-5-yl)phenyl]ethyl]-3-hydroxy-2-methylbutanamide] yielded an IC50 (DPP1 in HL-60 cells [1]) of at least 2.5 nM and an IC50 (human DPP1 enzyme [2]) of at least 15 nM.
For `C[C@H](O)[C@](C)(N)C(=O)N[C@H](C#N)Cc1ccc(-c2ccc3oc(=O)n(C)c3c2)cc1` [Compound 171B, (2S,3S)-2-amino-N-[(1S)-1-cyano-2-[4-(3-methyl-2-oxo-1,3-benzoxazol-5-yl)phenyl]ethyl]-3-hydroxy-2-methylbutanamide], the IC50 (DPP1 in HL-60 cells [1]) was at least 2.5 nM and the IC50 (human DPP1 enzyme [2]) was at least 15 nM.
Compound `Cn1c(=O)oc2ccc(-c3ccc(C[C@@H](C#N)NC(=O)CC(N)C4CCCCC4)cc3)cc21` (stereo partly drawn) [Compound 190, 3-amino-N-[(1S)-1-cyano-2-[4-(3-methyl-2-oxo-2,3-dihydro-1,3-benzoxazol-5-yl)phenyl]ethyl]-3-cyclohexylpropanamide] has an IC50 (DPP1 in HL-60 cells [1]) of at least 2.5 nM.
For `CN(C)C[C@](C)(O)C(=O)N[C@H](C#N)Cc1ccc(-c2ccc(S(=O)(=O)N3CCC3)cc2)cc1` [Compound 415], the inhibition at 0.005 µM (DPP1 in HL-60 cells [3]) was at most 76.5% and the inhibition at 0.01 µM (human DPP1 enzyme [4]) was at most 40%.
`CN(C)C[C@](C)(O)C(=O)N[C@H](C#N)Cc1ccc(-c2ccc3cnn(C)c3c2)cc1F` [Compound 416] was tested, and the inhibition at 0.005 µM (DPP1 in HL-60 cells [3]) was 76.5 to 93.9% and the inhibition at 0.01 µM (human DPP1 enzyme [4]) was 40 to 66.7%.
Compound `CN(C)C[C@](C)(O)C(=O)N[C@H](C#N)Cc1ccc(-c2ccc3nnn(C)c3c2)cc1F` [Compound 417] has an inhibition at 0.005 µM (DPP1 in HL-60 cells [3]) of 76.5 to 93.9% and an inhibition at 0.01 µM (human DPP1 enzyme [4]) of at least 66.7%.
In the case of `CN(C)C[C@](C)(O)C(=O)N[C@H](C#N)Cc1ccc(-c2cnc3c(n2)CCCC3)cc1F` [Compound 418], the inhibition at 0.005 µM (DPP1 in HL-60 cells [3]) is reported as at most 76.5% and the inhibition at 0.01 µM (human DPP1 enzyme [4]) is reported as 40 to 66.7%.
For `CN(C)C[C@](C)(O)C(=O)N[C@H](C#N)Cc1ccc(-c2ccc(S(=O)(=O)N3CCC3)cc2)cc1F` [Compound 419], the inhibition at 0.005 µM (DPP1 in HL-60 cells [3]) was at most 76.5% and the inhibition at 0.01 µM (human DPP1 enzyme [4]) was at most 40%.
In the case of `CN(C)C[C@](C)(O)C(=O)N[C@H](C#N)Cc1cc2c(cc1F)-c1ccc(F)cc1CO2` [Compound 420], the inhibition at 0.005 µM (DPP1 in HL-60 cells [3]) is reported as at most 76.5% and the inhibition at 0.01 µM (human DPP1 enzyme [4]) is reported as at most 40%.
